For data set [1], the target named is human PPARγ LBD (Homo sapiens, UniProt P37231). The note with it: FIG. 1.
human PPARγ LBD, sequence (P37231 238-503 limits assumed): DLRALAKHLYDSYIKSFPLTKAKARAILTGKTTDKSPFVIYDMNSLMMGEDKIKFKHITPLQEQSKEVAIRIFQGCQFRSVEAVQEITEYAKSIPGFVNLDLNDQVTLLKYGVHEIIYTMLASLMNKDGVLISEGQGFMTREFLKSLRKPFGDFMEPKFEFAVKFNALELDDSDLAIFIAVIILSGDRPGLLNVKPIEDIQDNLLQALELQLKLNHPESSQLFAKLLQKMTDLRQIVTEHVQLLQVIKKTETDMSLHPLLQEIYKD

Usually melting point stands for the temperature of the solid-liquid transition. Turning to `O=C(Nc1ccc(OCc2cccs2)cc1C(=O)[O-])c1ccc(Cl)cc1Cl.[Li+]` [Example 1, Lithium 2-[(2,4-dichlorobenzoyl)amino]-5-(2-thienylmethoxy)benzoate], the melting point was in the range of 165 to 168 °C. In addition, the “location of the compound in the structure of the human PPARγ LBD complex” value in data set [1] is recorded as “located in the ligand binding pocket of human PPARγ”.
